Numbers after ± are expanded uncertainties.
Experiment: compressibility factor (dimensionless); xn = mol fraction of the nth substance listed
Settings: Liquid, Burnett expansion method

[N-]=[N+]=O [nitrous oxide] + FC(F)F
compressibility factor (303.25 K, 141.8 kPa, x1 = 0.6613): 0.9915 ± 0.0001 | compressibility factor (303.25 K, 151.7 kPa, x1 = 0.3152): 0.9906 ± 0.0001 | compressibility factor (303.25 K, 160.7 kPa, x1 = 0.2248): 0.991 ± 0.0002 | compressibility factor (303.25 K, 174.2 kPa, x1 = 0.5419): 0.9896 ± 0.0001 | compressibility factor (303.25 K, 182.2 kPa, x1 = 0.4308): 0.9882 ± 0.0001 | compressibility factor (303.25 K, 209.6 kPa, x1 = 0.7758): 0.9883 ± 0.0001 | compressibility factor (303.25 K, 211.4 kPa, x1 = 0.6613): 0.9879 ± 0.0001 | compressibility factor (303.25 K, 225.8 kPa, x1 = 0.3152): 0.9858 ± 0.0001 | compressibility factor (303.25 K, 239.5 kPa, x1 = 0.2248): 0.9872 ± 0.0002 | compressibility factor (303.25 K, 259.3 kPa, x1 = 0.5419): 0.9847 ± 0.0001 | compressibility factor (303.25 K, 271.2 kPa, x1 = 0.4308): 0.9832 ± 0.0001 | compressibility factor (303.25 K, 311.9 kPa, x1 = 0.7758): 0.983 ± 0.0001 | compressibility factor (303.25 K, 314.4 kPa, x1 = 0.6613): 0.9824 ± 0.0001 | compressibility factor (303.25 K, 335.5 kPa, x1 = 0.3152): 0.9789 ± 0.0001 | compressibility factor (303.25 K, 356.1 kPa, x1 = 0.2248): 0.9814 ± 0.0002 | compressibility factor (303.25 K, 385.1 kPa, x1 = 0.5419): 0.9775 ± 0.0001 | compressibility factor (303.25 K, 402.6 kPa, x1 = 0.4308): 0.9756 ± 0.0001 | compressibility factor (303.25 K, 462.7 kPa, x1 = 0.7758): 0.9749 ± 0.0001 | compressibility factor (303.25 K, 466.4 kPa, x1 = 0.6613): 0.974 ± 0.0001 | compressibility factor (303.25 K, 496.7 kPa, x1 = 0.3152): 0.9688 ± 0.0001 | compressibility factor (303.25 K, 528.1 kPa, x1 = 0.2248): 0.9726 ± 0.0002 | compressibility factor (303.25 K, 569.8 kPa, x1 = 0.5419): 0.9668 ± 0.0001 | compressibility factor (303.25 K, 595 kPa, x1 = 0.4308): 0.9638 ± 0.0001 | compressibility factor (303.25 K, 683.7 kPa, x1 = 0.7758): 0.9628 ± 0.0001 | compressibility factor (303.25 K, 688.8 kPa, x1 = 0.6613): 0.9615 ± 0.0001 | compressibility factor (303.25 K, 731.3 kPa, x1 = 0.3152): 0.9534 ± 0.0001 | compressibility factor (303.25 K, 779.4 kPa, x1 = 0.2248): 0.9596 ± 0.0002 | compressibility factor (303.25 K, 838.3 kPa, x1 = 0.5419): 0.9507 ± 0.0001 | compressibility factor (303.25 K, 874.1 kPa, x1 = 0.4308): 0.9464 ± 0.0001 | compressibility factor (303.25 K, 1003.6 kPa, x1 = 0.7758): 0.9446 ± 0.0001 | compressibility factor (303.25 K, 1010.4 kPa, x1 = 0.6613): 0.9427 ± 0.0001 | compressibility factor (303.25 K, 1068.3 kPa, x1 = 0.3152): 0.9309 ± 0.0001 | compressibility factor (303.25 K, 1142.3 kPa, x1 = 0.2248): 0.94 ± 0.0002 | compressibility factor (303.25 K, 1222.8 kPa, x1 = 0.5419): 0.9269 ± 0.0001 | compressibility factor (303.25 K, 1272.3 kPa, x1 = 0.4308): 0.9208 ± 0.0001 | compressibility factor (303.25 K, 1459.1 kPa, x1 = 0.7758): 0.918 ± 0.0001 | compressibility factor (303.25 K, 1467.5 kPa, x1 = 0.6613): 0.9152 ± 0.0001 | compressibility factor (303.25 K, 1541.6 kPa, x1 = 0.3152): 0.8979 ± 0.0001 | compressibility factor (303.25 K, 1657.1 kPa, x1 = 0.2248): 0.9115 ± 0.0002 | compressibility factor (303.25 K, 1760.9 kPa, x1 = 0.5419): 0.8922 ± 0.0001 | compressibility factor (303.25 K, 1825.8 kPa, x1 = 0.4308): 0.8832 ± 0.0001 | compressibility factor (303.25 K, 2090.5 kPa, x1 = 0.7758): 0.8791 ± 0.0001 | compressibility factor (303.25 K, 2099 kPa, x1 = 0.6613): 0.8749 ± 0.0001 | compressibility factor (303.25 K, 2185.1 kPa, x1 = 0.3152): 0.8507 ± 0.0001 | compressibility factor (303.25 K, 2366.6 kPa, x1 = 0.2248): 0.8701 ± 0.0001 | compressibility factor (303.25 K, 2486.5 kPa, x1 = 0.5419): 0.8421 ± 0.0001 | compressibility factor (303.25 K, 2565.1 kPa, x1 = 0.4308): 0.8294 ± 0.0001 | compressibility factor (303.25 K, 2929 kPa, x1 = 0.7758): 0.8233 ± 0.0001 | compressibility factor (303.25 K, 2933.8 kPa, x1 = 0.6613): 0.8174 ± 0.0001 | compressibility factor (303.25 K, 3012.1 kPa, x1 = 0.3152): 0.7838 ± 0.0001 | compressibility factor (303.25 K, 3303.6 kPa, x1 = 0.2248): 0.8119 ± 0.0001 | compressibility factor (303.25 K, 3408.6 kPa, x1 = 0.5419): 0.7716 ± 0.0001 | compressibility factor (303.25 K, 3489.6 kPa, x1 = 0.4308): 0.7542 ± 0.0001 | compressibility factor (303.25 K, 3965.1 kPa, x1 = 0.7758): 0.7449 ± 0.0001 | compressibility factor (323.43 K, 176.4 kPa, x1 = 0.5105): 0.9908 ± 0.0001 | compressibility factor (323.43 K, 262.8 kPa, x1 = 0.5105): 0.987 ± 0.0001 | compressibility factor (323.43 K, 391 kPa, x1 = 0.5105): 0.9814 ± 0.0001 | compressibility factor (323.43 K, 579.9 kPa, x1 = 0.5105): 0.9729 ± 0.0001 | compressibility factor (323.43 K, 856.1 kPa, x1 = 0.5105): 0.96 ± 0.0001 | compressibility factor (323.43 K, 1255 kPa, x1 = 0.5105): 0.9406 ± 0.0001 | compressibility factor (323.43 K, 1820.9 kPa, x1 = 0.5105): 0.9123 ± 0.0001 | compressibility factor (323.43 K, 2601.4 kPa, x1 = 0.5105): 0.8711 ± 0.0001 | compressibility factor (323.43 K, 3632.8 kPa, x1 = 0.5105): 0.8131 ± 0.0001 | compressibility factor (323.44 K, 159.9 kPa, x1 = 0.6428): 0.9917 ± 0.0001 | compressibility factor (323.44 K, 170.7 kPa, x1 = 0.7792): 0.992 ± 0.0001 | compressibility factor (323.44 K, 174 kPa, x1 = 0.358): 0.9909 ± 0.0001 | compressibility factor (323.44 K, 238.4 kPa, x1 = 0.6428): 0.9886 ± 0.0001 | compressibility factor (323.44 K, 254.5 kPa, x1 = 0.7792): 0.9888 ± 0.0001 | compressibility factor (323.44 K, 259.3 kPa, x1 = 0.358): 0.9869 ± 0.0001 | compressibility factor (323.44 K, 354.9 kPa, x1 = 0.6428): 0.9837 ± 0.0001 | compressibility factor (323.44 K, 378.9 kPa, x1 = 0.7792): 0.9837 ± 0.0001

From the NIST ThermoML archive (doi:10.1007/s10765-006-0082-x)
